Results reported in US5834463A, “Condensed heterocyclic compounds, their production and use” (Takeda Chemical Industries, Ltd., priority 1994, dated 1998).

Target: T1, human GnRH receptor (Homo sapiens, UniProt P30968)
T1 construct: expressed in transfected cells; host or cells: CHO (Chinese Hamster Ovary) cells, membrane fraction
T1 sequence (P30968 1-328): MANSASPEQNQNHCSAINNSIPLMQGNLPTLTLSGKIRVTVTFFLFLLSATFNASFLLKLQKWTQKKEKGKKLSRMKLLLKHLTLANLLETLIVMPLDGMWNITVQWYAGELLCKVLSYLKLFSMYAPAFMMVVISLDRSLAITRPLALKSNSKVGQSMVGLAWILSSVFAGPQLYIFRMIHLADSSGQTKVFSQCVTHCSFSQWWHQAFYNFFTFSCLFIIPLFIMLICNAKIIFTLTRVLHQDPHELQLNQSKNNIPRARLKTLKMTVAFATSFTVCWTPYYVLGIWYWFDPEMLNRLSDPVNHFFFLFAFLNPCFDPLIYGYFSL
Experiment: Test for inhibition of ^125 I-leuprorelin binding to human GnRH receptor
Details: membrane fraction of CHO cells expressing human GnRH receptors, 25° C., 60 minutes, read-out: Binding Inhibitory Activity (IC50, μM) for human GnRH receptor
Experimental: (A) Preparation of ^125 I-leuprorelin
Ten μl of a 3×10^-4 M aqueous solution of leuprorelin and 10μl of 0.01 mg/ml lactoperoxidase in 0.1M Hepes buffer (pH7.4) were put in a tube, to which was added 10 μl of an Na^125 I solution (37 MBq). The mixture was stirred, to which was added 10 μl of 0.001% H2 O2, followed by allowing the reaction to proceed for 20 minutes at room temperature. To the reaction mixture was added 700 μl of a 0.05% TFA solution to stop the reaction. The product of was purified by means of a reverse-phase HPLC. Conditions of HPLC were as follows:
(D) Preparation of membrane fraction of CHO (Chinese Hamster Ovary) cells containing human GnRH receptors
CHO cells (10^9) expressing human GnRH receptors were suspended in a phosphate-buffered saline supplemented with 5 mM EDTA. The suspension was subjected to centrifugal separation for 5 minutes at 100×g. To the pellet of cells was added 10 ml of a homogenate buffer for cells (10 mM NaHCO3, 5 mM EDTA, pH 7.5), which was homogenated by using a Polytron homogenizer. Centrifugal separation was conducted for 15 minutes at 400×g. The supernatant was taken into an ultracentrifugal tube, which was subjected to centrifuge for one hour at 100,000×g to give precipitate of the membrane fraction. The precipitate was suspended in 2 ml of the assay buffer, which was centrifuged for one hour at 100,000×g. The membrane fraction recovered as precipitate was again suspended in 20 ml of the assay buffer, which was distributed to vials and stored at -80° C. until used.
(E) Determination of inhibitory rate of ^125 I-leuprorelin binding
In the cases of using rat and human pituitary membrane fractions prepared in (B) and (D), they were respectively diluted with the assay buffer to 200 μg/ml and 188 μl each was distributed to tubes. In the case of using bovine pituitary membrane fraction prepared in (C), it was diluted with the assay buffer to 750 μg/ml and 188 μl each was distributed into tubes. In the case where the membrane fraction of anterior lobes of rat pituitary gland was used, 2 μl of a 0.1 mM compound dissolved in 60% DMSO (dimethylsulfoxide) and 10 μl of 38 nM ^125 I-leuprorelin were added thereto simultaneously. In the case where the membrane fraction of anterior lobes of bovine pituitary gland and the membrane fraction derived from the CHO cells expressing human GnRH receptors were used, 2 μl of a 2 mM compound dissolved in 60% DMSO and 10 μl of 38 nM ^125 I-leuproprelin were added simultaneously. For determining the maximum binding amount, a solution for reaction supplemented with 2 μl of 60% DMSO and 10 μl of 38 nM ^125 I-leuprorelin was prepared. And, for determining the amount of non-specific binding, a solution for reaction supplemented with 2 μl of 100 μM leuprorelin dissolved in 60% DMSO and 10 μl of 38 nM ^125 I-leuprorelin were also prepared simultaneously.
In the cases where membrane fractions of anterior lobes of rat and bovine pituitary were used, reaction was allowed to proceed at 4° C. for 90 minutes, while in the case where the membrane fraction derived from the CHO cells expressing human GnRH receptor was used, reaction was allowed to proceed at 25° C. for 60 minutes. The reaction mixtures were respectively subjected to filtration under sucking with Whatman glass filter (GF-F) processed with polyethyleneimine. After completing the filtration, radioactivity of the ^125 I-leuprorelin remaining on the filter paper was measured with a γ-counter.
By calculation of (TB-SB)/(TB-NSB)×100 (SB: radioactivity obtained when a compound was added, TB: radioactivity for the maximum binding, NSB: radioactivity for the non-specific binding), the binding inhibitory rate of each test compound was determined. Besides, the inhibitory rates were determined by changing the concentrations of test compounds, and the concentration of a test compound inhibiting the specific binding by 50% (IC50 value) was calculated by way of Hill plot.

Row | Compound | IC50
1 | O=C1c2ccc([N+](=O)[O-])cc2C(=O)N1CC(=O)N1c2ccccc2N(Cc2ccccc2)C(=O)[C@H]2CCC[C@H]21 (relative stereo) [compound 49] | 2 µM
2 | O=C1c2ccccc2C(=O)N1CCC(=O)N1c2ccccc2N(Cc2ccccc2)C(=O)[C@H]2CCC[C@H]21 (relative stereo) [compound 50] | 24 µM
3 | O=C1c2ccccc2C(=O)N1CCCC(=O)N1c2ccccc2N(Cc2ccccc2)C(=O)[C@H]2CCC[C@H]21 (relative stereo) [compound 51] | 12 µM
4 | O=C1c2ccc(Cl)cc2C(=O)N1CC(=O)N1c2ccccc2N(Cc2ccccc2)C(=O)[C@H]2CCC[C@H]21 (relative stereo) [compound 69] | 2 µM
5 | O=C1c2ccc(F)cc2C(=O)N1CC(=O)N1c2ccccc2N(Cc2ccccc2)C(=O)[C@H]2CCC[C@H]21 (relative stereo) [compound 70] | 2 µM
6 | Cc1ccc2c(c1)C(=O)N(CC(=O)N1c3ccccc3N(Cc3ccccc3)C(=O)[C@H]3CCC[C@H]31)C2=O (relative stereo) [compound 71] | 9 µM
7 | O=C1c2cccc([N+](=O)[O-])c2C(=O)N1CC(=O)N1c2ccccc2N(Cc2ccccc2)C(=O)[C@H]2CCC[C@H]21 (relative stereo) [compound 72] | 6 µM
8 | O=C1c2cccc(O)c2C(=O)N1CC(=O)N1c2ccccc2N(Cc2ccccc2)C(=O)[C@H]2CCC[C@H]21 (relative stereo) [compound 73] | 9 µM
9 | O=C1c2cccc3cccc(c23)C(=O)N1CC(=O)N1c2ccccc2N(Cc2ccccc2)C(=O)[C@H]2CCC[C@H]21 (relative stereo) [compound 75] | 3 µM
10 | O=C1Cc2ccccc2C(=O)N1CC(=O)N1c2ccccc2N(Cc2ccccc2)C(=O)[C@H]2CCC[C@H]21 (relative stereo) [compound 77] | 5 µM
11 | O=C1c2cccnc2C(=O)N1CC(=O)N1c2ccccc2N(Cc2ccccc2)C(=O)[C@H]2CCC[C@H]21 (relative stereo) [compound 78] | 5 µM
12 | O=C1[C@H]2CC=CC[C@H]2C(=O)N1CC(=O)N1c2ccccc2N(Cc2ccccc2)C(=O)[C@H]2CCC[C@H]21 (relative stereo) [compound 80] | 9 µM
13 | COc1cc(OC)cc(C(=O)NCC(=O)N2c3ccccc3N(Cc3ccccc3)C(=O)[C@H]3CCC[C@H]32)c1 (relative stereo) [compound 87] | 16 µM
14 | Nc1cccc2c1C(=O)N(CC(=O)N1c3ccccc3N(Cc3ccccc3)C(=O)[C@H]3CCC[C@H]31)C2=O (relative stereo) [compound 106] | 5 µM
15 | COC(=O)c1ccc2c(c1)C(=O)N(CC(=O)N1c3ccccc3N(Cc3ccccc3)C(=O)[C@H]3CCC[C@H]31)C2=O (relative stereo) [compound 108] | 8 µM
16 | CC(=O)N(CC(=O)N1c2ccccc2N(Cc2ccccc2)C(=O)[C@H]2CCC[C@H]21)C(=O)c1ccccc1 (relative stereo) [compound 109] | 6 µM
17 | O=C1c2ccccc2C(=O)N1CC(=O)N1c2ccccc2N(Cc2cccc3ccccc23)C(=O)[C@H]2CCC[C@H]21 (relative stereo) [compound 113] | 1 µM
18 | O=C1c2ccccc2C(=O)N1CC(=O)N1c2ccccc2N(Cc2ccc3ccccc3c2)C(=O)[C@H]2CCC[C@H]21 (relative stereo) [compound 114] | 0.6 µM
19 | O=C1c2ccccc2C(=O)N1CC(=O)N1c2ccccc2N(Cc2ccccn2)C(=O)[C@H]2CCC[C@H]21 (relative stereo) [compound 118] | 2 µM

Row | Compound | IC50
20 | O=C1c2ccccc2C(=O)N1CC(=O)N1c2ccccc2N(Cc2cccnc2)C(=O)[C@H]2CCC[C@H]21 (relative stereo) [compound 119] | 10 µM
21 | O=C1c2ccccc2C(=O)N1CC(=O)N1c2ccccc2N(Cc2ccncc2)C(=O)[C@H]2CCC[C@H]21 (relative stereo) [compound 120] | 4 µM
22 | O=C1c2ccncc2C(=O)N1CC(=O)N1c2ccccc2N(Cc2ccccc2)C(=O)[C@H]2CCC[C@H]21 (relative stereo) [compound 128] | 15 µM
23 | O=C1Cc2ccccc2N1CC(=O)N1c2ccccc2N(Cc2ccccc2)C(=O)[C@H]2CCC[C@H]21 (relative stereo) [compound 136] | 15 µM
24 | O=C1[C@H]2CCC[C@H]2N(C(=O)CNCc2ccccc2)c2ccccc2N1Cc1ccccc1 (relative stereo) [compound 138] | 14 µM
25 | CN(CC(=O)N1c2ccccc2N(Cc2ccccc2)C(=O)[C@H]2CCC[C@H]21)Cc1ccccc1 (relative stereo) [compound 139] | 11 µM
26 | O=C(c1ccccc1)N(CC(=O)N1c2ccccc2N(Cc2ccccc2)C(=O)[C@H]2CCC[C@H]21)Cc1ccccc1 (relative stereo) [compound 141] | 14 µM
27 | O=C1c2ccccc2C(=O)N1CC(=O)N1c2ccccc2N(Cc2ccccc2)C(=O)[C@H]2CCCC[C@H]21 (relative stereo) [compound 168] | 3 µM
28 | O=C1c2ccccc2C(=O)N1CC(=O)N1c2ccccc2N(Cc2ccc(Cl)cc2)C(=O)[C@H]2CCC[C@H]21 (relative stereo) [compound 169] | 2 µM
29 | O=C1C2=C(CCCC2)C(=O)N1CC(=O)N1c2ccccc2N(Cc2cccc3ccccc23)C(=O)[C@H]2CCC[C@H]21 (relative stereo) [compound 170] | 0.6 µM
30 | O=C1C2=C(CCCC2)C(=O)N1CC(=O)N1c2ccccc2N(Cc2ccc3ccccc3c2)C(=O)[C@H]2CCC[C@H]21 (relative stereo) [compound 171] | 0.3 µM
31 | CC1=C(C)C(=O)N(CC(=O)N2c3ccccc3N(Cc3ccccc3)C(=O)[C@H]3CCC[C@H]32)C1=O (relative stereo) [compound 173] | 7 µM
32 | O=C1C2=C(CCC2)C(=O)N1CC(=O)N1c2ccccc2N(Cc2ccccc2)C(=O)[C@H]2CCC[C@H]21 (relative stereo) [compound 176] | 2 µM
33 | O=C1c2ccccc2C(=O)N1CC(=O)N1c2ccccc2N(Cc2ccc(-c3ccccc3)cc2)C(=O)[C@H]2CCC[C@H]21 (relative stereo) [compound 182] | 2 µM
34 | O=C1c2ccccc2C(=O)N1CC(=O)N1c2ccccc2N(Cc2ccc3ccccc3n2)C(=O)[C@H]2CCC[C@H]21 (relative stereo) [compound 184] | 0.8 µM
35 | O=C1c2ccccc2C(=O)N1CC(=O)N1c2ccccc2N(Cc2ccc(F)cc2)C(=O)[C@H]2CCC[C@H]21 (relative stereo) [compound 191] | 2 µM
36 | O=C1c2ccccc2C(=O)N1CC(=O)N1c2ccccc2N(Cc2ccccc2F)C(=O)[C@H]2CCC[C@H]21 (relative stereo) [compound 194] | 3 µM
37 | O=C1c2ccccc2C(=O)N1CC(=O)N1c2ccccc2N(Cc2ccc([N+](=O)[O-])cc2)C(=O)[C@H]2CCC[C@H]21 (relative stereo) [compound 195] | 0.5 µM
38 | O=C1c2ccccc2C(=O)N1CC(=O)N1c2ccccc2N(Cc2cccc([N+](=O)[O-])c2)C(=O)[C@H]2CCC[C@H]21 (relative stereo) [compound 209] | 2 µM
